Data as given in patent publication US20240383954A1, “PEPTIDE INHIBITORS OF INTERLEUKIN-23 RECEPTOR AND THEIR USE TO TREAT INFLAMMATORY DISEASES” (Janssen Biotech, Inc., priority 2020, published 2024).
pIC50: −log10 of the molar value. Read-outs that look alike come from different tables or passages of the source. Starred links: 1 amine or outer side, 2 acyl side, 3 side chain; linkers in the order of their positions; H or OH if unused. Positions of bridges follow the written chain, without caps; N, C: chain ends. Non-standard residues stand in square brackets, D forms with d. Residues, ends and D or L forms follow the SMILES beside them. Trp(7-Ph) = N[C@@H](Cc1c[nH]c2c(-c3ccccc3)cccc12)C(=O)O; Trp(7-Me) = Cc1cccc2c(C[C@H](N)C(=O)O)c[nH]c12; Abu(4-yl) = O=C([C@H](CC[*:3])N[*:1])[*:2]; Phe(4-NH2) = Nc1ccc(C[C@H](N)C(=O)O)cc1; 2Nal = N[C@@H](Cc1ccc2ccccc2c1)C(=O)O; AEF = NCCOc1ccc(C[C@H](N)C(=O)O)cc1; αMeF = C[C@](N)(Cc1ccccc1)C(=O)O; Pen = CC(C)(S)[C@H](N)C(=O)O; αMeK = C[C@](N)(CCCCN)C(=O)O; αMeC = C[C@](N)(CS)C(=O)O; dDap = NC[C@@H](N)C(=O)O; Thp = NC1(C(=O)O)CCOCC1; Ac3c = NC1(C(=O)O)CC1

What was measured:
IL-23R [1] = molecular target: T1, IL-23R (Homo sapiens, UniProt Q5VWK5); assay: cell-based
T1 sequence (Q5VWK5 24-629): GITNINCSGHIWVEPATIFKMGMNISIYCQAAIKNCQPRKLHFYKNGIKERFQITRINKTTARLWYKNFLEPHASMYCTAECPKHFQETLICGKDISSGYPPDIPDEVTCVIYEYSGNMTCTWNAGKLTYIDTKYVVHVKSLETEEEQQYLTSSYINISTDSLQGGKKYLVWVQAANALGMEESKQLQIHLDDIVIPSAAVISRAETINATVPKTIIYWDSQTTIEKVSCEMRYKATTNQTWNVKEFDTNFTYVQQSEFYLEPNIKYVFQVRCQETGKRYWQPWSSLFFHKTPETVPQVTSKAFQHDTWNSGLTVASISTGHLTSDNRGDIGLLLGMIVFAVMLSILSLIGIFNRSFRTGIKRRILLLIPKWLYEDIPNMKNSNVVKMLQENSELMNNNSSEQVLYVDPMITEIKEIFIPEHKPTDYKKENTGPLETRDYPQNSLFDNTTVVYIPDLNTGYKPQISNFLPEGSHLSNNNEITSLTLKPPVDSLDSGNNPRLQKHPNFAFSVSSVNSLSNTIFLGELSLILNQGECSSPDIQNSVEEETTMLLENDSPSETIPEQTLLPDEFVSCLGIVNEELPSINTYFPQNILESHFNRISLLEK
Source text: DB Cells IL23R pSTAT3 Cell Assay
Changes in phospho-STAT3 levels in the cell lysates were detected using the Cisbio HTRF pSTAT3 Cellular Assay Kit, according to manufacturer's Two Plate Assay protocol.

IL-23R [2] = molecular target: T1, IL-23R; assay: cell-based; details: PBMC pSTAT3 IC50 (nM), PBMCs from healthy donors, IL-23 5 ng/mL, 30 minutes, phosphorylated STAT3
Procedure: Cryopreserved peripheral blood mononuclear cells (PBMCs) from healthy donors were thawed and washed twice in ImmunoCult-XF T cell expansion medium (XF-TCEM) supplemented with CTL anti-aggregate wash. […] The cells were stimulated with cytokine for 30 minutes at 37° C. in 5% CO2, transferred onto ice for 10 minutes, and lysed. Cell lysates were stored at −80° C. until phosphorylated STAT3 was measured using the phospho-STAT panel kit (Meso Scale Discovery, K15202D).

| SMILES | pIC50 (IL-23R [1]) | IC50 (IL-23R [2]) |
| --- | --- | --- |
| CC(=O)NCCCC[C@@H]1NC(=O)[C@H](Cc2c[nH]c3c(C)cccc23)NC(=O)[C@@H](CN)NC(=O)[C@H](CC(N)=O)NC(=O)[C@@H](NC(C)=O)C(C)(C)SSC(C)(C)[C@@H](C(=O)N[C@@H](Cc2ccc(OCCN)cc2)C(=O)N[C@@H](Cc2ccc3ccccc3c2)C(=O)N[C@@](C)(CCCCN)C(=O)N[C@@H](CCCCNC(C)=O)C(=O)N[C@@H](CC(N)=O)C(=O)N[C@H](CC(C)C)C(N)=O)NC1=O [Compound 72, Ac-[Pen]-N-[(D)Dap]-[W(7-Me)]-[Lys(Ac)]-[Pen]-Phe[4-(2-aminoethoxy)]-[2-Nal]-[a-MeLys]-[Lys(Ac)]-N-[(D)Leu]-NH2] (Ac-[Pen]N[dDap][Trp(7-Me)]K(Ac)[Pen][AEF][2Nal][αMeK]K(Ac)N[dL]-NH2; disulfide 1-6) | 7.28 | – |
| CC(=O)NCCCC[C@@H]1NC(=O)[C@H](Cc2c[nH]c3c(C)cccc23)NC(=O)[C@H]([C@@H](C)O)NC(=O)[C@H](CC(N)=O)NC(=O)[C@@H](NC(C)=O)C(C)(C)SSC(C)(C)[C@@H](C(=O)N[C@@H](Cc2ccc(OCCN)cc2)C(=O)N[C@@H](Cc2ccc3ccccc3c2)C(=O)N[C@@](C)(CCCCN)C(=O)N[C@@H](CCCCNC(C)=O)C(=O)N[C@@H](CC(N)=O)C(=O)N[C@@H](Cc2ccc(N)cc2)C(N)=O)NC1=O [Compound 112, Ac-[Pen]-N-T-[W(7-Me)]-[Lys(Ac)]-[Pen]-Phe[4-(2-aminoethoxy)]-[2-Nal]-[a-MeLys]-[Lys(Ac)]-N-Phe[4-NH2]-NH2] | 8.68 | – |
| CC(=O)NCCCC[C@@H]1NC(=O)[C@H](Cc2c[nH]c3c(-c4ccccc4)cccc23)NC(=O)[C@H]([C@@H](C)O)NC(=O)[C@H](CCC(N)=O)NC(=O)[C@@H](NC(=O)[C@@H](CCCNC(=N)N)NC(C)=O)CCSC[C@@H](C(=O)N[C@@H](Cc2ccc(OCCN)cc2)C(=O)N[C@@H](Cc2ccc3ccccc3c2)C(=O)N[C@@](C)(CCCCN)C(=O)N[C@@H](CCCCNC(C)=O)C(=O)N[C@@H](CC(N)=O)C(=O)N[C@@](C)(Cc2ccccc2)C(N)=O)NC1=O [Compound 11, Ac-[(D)Arg]-[Abu]-Q-T-[W(7-Ph)]-[Lys(Ac)]-[Cys]-Phe[4-(2-aminoethoxy)]-[2-Nal]-[a-MeLys]-[Lys(Ac)]-N-[a-MePhe]-NH2] (Ac-[dR][Abu(4-yl)]QT[Trp(7-Ph)]K(Ac)C[AEF][2Nal][αMeK]K(Ac)N[αMeF]-NH2; thioether 2-7) | 7.86 | – |
| CC(=O)NCCCC[C@@H]1NC(=O)[C@H](Cc2c[nH]c3c(C)cccc23)NC(=O)[C@H]([C@@H](C)O)NC(=O)[C@H](CC(N)=O)NC(=O)[C@@H](NC(C)=O)C(C)(C)SSC(C)(C)[C@@H](C(=O)N[C@@H](Cc2ccc(OCCN)cc2)C(=O)N[C@@H](Cc2ccc3ccccc3c2)C(=O)N[C@@](C)(CCCCN)C(=O)N[C@@H](CCCCNC(C)=O)C(=O)N[C@@H](CC(N)=O)C(=O)N[C@H](CC(C)C)C(=O)N[C@@](C)(Cc2ccccc2)C(N)=O)NC1=O [Compound 68, Ac-[Pen]-N-T-[W(7-Me)]-[Lys(Ac)]-[Pen]-Phe[4-(2-aminoethoxy)]-[2-Nal]-[a-MeLys]-[Lys(Ac)]-N-[(D)Leu]-[aMePhe]-am] | 8.15 | – |
| CC(=O)NCCCC[C@@H]1NC(=O)[C@H](Cc2c[nH]c3c(-c4ccccc4)cccc23)NC(=O)[C@H]([C@@H](C)O)NC(=O)[C@H](CCC(N)=O)NC(=O)[C@@H](NC(C)=O)CCSC[C@@H](C(=O)N[C@@H](Cc2ccc(OCCN)cc2)C(=O)N[C@@H](Cc2ccc3ccccc3c2)C(=O)N[C@@](C)(CCCCN)C(=O)N[C@@H](CCCCNC(C)=O)C(=O)N[C@@H](CC(N)=O)C(=O)N[C@@](C)(Cc2ccccc2)C(N)=O)NC1=O [Compound 67, Ac-[Abu]-Q-T-[W(7-Ph)]-[Lys(Ac)]-[Cys]-Phe[4-(2-aminoethoxy)]-[2-Nal]-[a-MeLys]-[Lys(Ac)]-N-[a-MePhe]-NH2] (Ac-[Abu(4-yl)]QT[Trp(7-Ph)]K(Ac)C[AEF][2Nal][αMeK]K(Ac)N[αMeF]-NH2; thioether 1-6) | 8.26 | – |
| CC(=O)NCCCC[C@@H]1NC(=O)[C@H](Cc2c[nH]c3c(C)cccc23)NC(=O)[C@H]([C@@H](C)O)NC(=O)[C@H](CC(N)=O)NC(=O)[C@@H](NC(C)=O)C(C)(C)SSC(C)(C)[C@@H](C(=O)N[C@@H](Cc2ccc(OCCN)cc2)C(=O)N[C@@H](Cc2ccc3ccccc3c2)C(=O)N[C@@](C)(CCCCN)C(=O)N[C@@H](CCCCNC(C)=O)C(=O)N[C@@H](CC(N)=O)C(=O)NC(C)(C)C(=O)NCCCCCC(N)=O)NC1=O [Compound 70, Ac-[Pen]-N-T-[W(7-Me)]-[Lys(Ac)]-[Pen]-Phe[4-(2-aminoethoxy)]-[2-Nal]-[a-MeLys]-[Lys(Ac)]-N-[Aib-Ahx]-NH2] | 8.91 | – |
| CC(=O)NCCCC[C@@H]1NC(=O)[C@H](Cc2c[nH]c3c(C)cccc23)NC(=O)[C@H]([C@@H](C)O)NC(=O)[C@H](CC(N)=O)NC(=O)[C@@H](NC(C)=O)C(C)(C)SSC(C)(C)[C@@H](C(=O)N[C@@H](Cc2ccc(OCCN)cc2)C(=O)N[C@@H](Cc2ccc3ccccc3c2)C(=O)N[C@@](C)(CCCCN)C(=O)N[C@@H](CCCCNC(C)=O)C(=O)N[C@@H](CC(N)=O)C(=O)N[C@H](CC(C)C)C(=O)N[C@](C)(Cc2ccccc2)C(N)=O)NC1=O [Compound 69, Ac-[Pen]-N-T-[W(7-Me)]-[Lys(Ac)]-[Pen]-Phe[4-(2-aminoethoxy)]-[2-Nal]-[a-MeLys]-[Lys(Ac)]-N-[(D)Leu]-[(D)aMePhe]-NH2] | 8.56 | – |
| CC(=O)NCCCC[C@@H]1NC(=O)[C@H](Cc2c[nH]c3c(C)cccc23)NC(=O)[C@@H](CC(=O)O)NC(=O)[C@H](CC(N)=O)NC(=O)[C@@H](NC(C)=O)C(C)(C)SSC(C)(C)[C@@H](C(=O)N[C@@H](Cc2ccc(OCCN)cc2)C(=O)N[C@@H](Cc2ccc3ccccc3c2)C(=O)N[C@@](C)(CCCCN)C(=O)N[C@@H](CCCCNC(C)=O)C(=O)N[C@@H](CC(N)=O)C(=O)N[C@H](CC(C)C)C(N)=O)NC1=O [Compound 74, Ac-[Pen]-N-[(D)Asp]-[W(7-Me)]-[Lys(Ac)]-[Pen]-Phe[4-(2-aminoethoxy)]-[2-Nal]-[a-MeLys]-[Lys(Ac)]-N-[(D)Leu]-NH2] (Ac-[Pen]N[dD][Trp(7-Me)]K(Ac)[Pen][AEF][2Nal][αMeK]K(Ac)N[dL]-NH2; disulfide 1-6) | 7.14 | – |
| CC(=O)N[C@H](CCCNC(=N)N)C(=O)N[C@H]1CCSC[C@@H](C(=O)N[C@@H](Cc2ccc(OCCN)cc2)C(=O)N[C@@H](Cc2ccc3ccccc3c2)C(=O)NC2(C(=O)N[C@@](C)(CCC(=O)O)C(=O)N[C@@H](CC(N)=O)C(=O)NC3(C(N)=O)CCOCC3)CCOCC2)NC(=O)[C@H](CCC(N)=O)NC(=O)[C@H](Cc2c[nH]c3ccccc23)NC(=O)[C@H]([C@@H](C)O)NC(=O)[C@H](CCC(N)=O)NC1=O [Compound 37, Ac-[(D)Arg]-[Abu]-Q-T-W-Q-[Cys]-Phe[4-(2-aminoethoxy)]-[2-Nal]-[THP]-[aMeGlu]-N-[THP]-NH2] | – | 11 nM |
| CC(=O)NCCCC[C@@H]1NC(=O)[C@H](Cc2c[nH]c3c(C)cccc23)NC(=O)[C@H]([C@@H](C)O)NC(=O)[C@H](CC(N)=O)NC(=O)[C@@H](NC(=O)[C@@H](CCCNC(=N)N)NC(C)=O)CSSC[C@@](C)(C(=O)N[C@@H](Cc2ccc(OCCN)cc2)C(=O)N[C@@H](Cc2ccc3ccccc3c2)C(=O)NC2(C(=O)N[C@@H](CCC(=O)O)C(=O)N[C@@H](CC(N)=O)C(=O)NC3(C(N)=O)CCOCC3)CC2)NC1=O [Compound 310, MeCO-r-C-N-T-7MeW-K(Ac)- aMeC-AEF-2Nal-Acpx-E-N-THP-CONH2] (Ac-[dR]CNT[Trp(7-Me)]K(Ac)[αMeC][AEF][2Nal][Ac3c]EN[Thp]-NH2; disulfide 2-7) | – | 9.9 nM |
| CC(=O)Nc1ccc(C[C@@H]2NC(=O)[C@H](Cc3c[nH]c4c(C)cccc34)NC(=O)[C@H]([C@@H](C)O)NC(=O)[C@H](CC(N)=O)NC(=O)[C@@H](NC(=O)[C@@H](CCCNC(=N)N)NC(C)=O)C(C)(C)SSC(C)(C)[C@@H](C(=O)N[C@@H](Cc3ccc(OCCN)cc3)C(=O)N[C@@H](Cc3ccc4ccccc4c3)C(=O)NC3(C(=O)N[C@@H](CCC(=O)O)C(=O)N[C@@H](CC(N)=O)C(=O)NC4(C(N)=O)CCOCC4)CC3)NC2=O)cc1 [Compound 306, MeCO-r-Pen-N-T-7MeW-Paf(Ac)-Pen-AEF-2Nal-Acpx-E-N-THP---CONH2] (Ac-[dR][Pen]NT[Trp(7-Me)][Phe(4-NH2)](Ac)[Pen][AEF][2Nal][Ac3c]EN[Thp]-NH2; disulfide 2-7) | – | 9.6 nM |
| CC(=O)NCCCC[C@@H]1NC(=O)[C@H](Cc2c[nH]c3c(C)cccc23)NC(=O)[C@H]([C@@H](C)O)NC(=O)[C@H](CC(N)=O)NC(=O)[C@@H](NC(=O)[C@@H](CCCNC(=N)N)NC(C)=O)C(C)(C)SSC(C)(C)[C@@H](C(=O)N[C@@H](Cc2ccc(OCCN)cc2)C(=O)N[C@@H](Cc2ccc3ccccc3c2)C(=O)NC2(C(=O)N[C@@H](CCC(=O)O)C(=O)N[C@@H](CC(N)=O)C(=O)NC3(C(N)=O)CCOCC3)CCOCC2)NC1=O [Compound 92, Ac-[(D)Arg]-[Pen]-N-T-[W(7-Me)]-[Lys(Ac)]-[Pen]-Phe[4-(2-aminoethoxy)]-[2-Nal]-[THP]-E-N-[THP]-NH2] (Ac-[dR][Pen]NT[Trp(7-Me)]K(Ac)[Pen][AEF][2Nal][Thp]EN[Thp]-NH2; disulfide 2-7) | – | 3.3 nM |
| CC(=O)NCCCC[C@@H]1NC(=O)[C@H](Cc2c[nH]c3ccccc23)NC(=O)[C@H]([C@@H](C)O)NC(=O)[C@H](CC(N)=O)NC(=O)[C@@H](NC(C)=O)C(C)(C)SSC(C)(C)[C@@H](C(=O)N[C@@H](Cc2ccc(OCCN)cc2)C(=O)N[C@@H](Cc2ccc3ccccc3c2)C(=O)N[C@@](C)(CCCCN)C(=O)N[C@@H](CCCCNC(C)=O)C(=O)N[C@@H](CC(N)=O)C(=O)NC2(C(N)=O)CCOCC2)NC1=O [Compound 95, Ac-[Pen]-N-T-W-[Lys(Ac)]-[Pen]-Phe[4-(2-aminoethoxy)]-[2-Nal]-[a-MeLys]-[Lys(Ac)]-N-[THP]-NH2] | – | 22 nM |
| CC(=O)NCCCC[C@@H]1NC(=O)[C@H](Cc2c[nH]c3c(C)cccc23)NC(=O)[C@H]([C@@H](C)O)NC(=O)[C@H](CC(N)=O)NC(=O)[C@@H](NC(=O)[C@@H](CCCNC(=N)N)NC(C)=O)C(C)(C)SSC(C)(C)[C@@H](C(=O)N[C@@H](Cc2ccc(OCCNC(C)=O)cc2)C(=O)N[C@@H](Cc2ccc3ccccc3c2)C(=O)NC2(C(=O)N[C@@H](CCC(=O)O)C(=O)N[C@@H](CC(N)=O)C(=O)NC3(C(N)=O)CCOCC3)CC2)NC1=O [Compound 308, MeCO-r-Pen-N-T-7MeW-K(Ac)-Pen-AEF(Ac)-2Nal-Acpx-E-N-THP-CONH2] (Ac-[dR][Pen]NT[Trp(7-Me)]K(Ac)[Pen][AEF](Ac)[2Nal][Ac3c]EN[Thp]-NH2; disulfide 2-7) | – | 8 nM |
